In ChEMBL document CHEMBL3638960, “4,5-dihydro-oxazol-2yl derivatives” (2014):
pKi: −log10 of the molar value.

Target: Trace amine-associated receptor 1 (Mus musculus, UniProt Q923Y8)
Assay: Binding assay: Binding assay was performed at 4 C. in a final volume of 1 ml, and with an incubation time of 30 min. The radioligand [3H]-rac-2-(1,2,3,4-tetrahydro-1-naphthyl)-2-imidazoline was used at a concentration equal to the calculated Kd value of 60 nM to give a bound at around 0.1% of the total added radioligand concentration, and a specific binding which represented approximately 70-80% of the total binding. Non-specific binding was defined as the amount of [3H]-rac-2-(1,2,3,4-tetrahydro-1-naphthyl)-2-imidazoline bound in the presence of the appropriate unlabelled ligand (10 μM). Competing ligands were tested in a wide range of concentrations ([…]).

Chain of Trace amine-associated receptor 1 (Q923Y8 whole entry): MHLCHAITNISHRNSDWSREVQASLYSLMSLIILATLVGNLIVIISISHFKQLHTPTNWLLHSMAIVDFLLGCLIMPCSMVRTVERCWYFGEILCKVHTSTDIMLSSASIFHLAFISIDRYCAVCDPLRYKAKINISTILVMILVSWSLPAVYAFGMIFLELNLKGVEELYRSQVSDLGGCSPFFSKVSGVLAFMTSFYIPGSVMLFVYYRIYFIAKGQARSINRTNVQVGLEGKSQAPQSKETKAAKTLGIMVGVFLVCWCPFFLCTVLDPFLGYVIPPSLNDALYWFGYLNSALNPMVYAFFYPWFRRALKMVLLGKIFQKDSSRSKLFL

Compound: NC1=N[C@@H](CCC2(c3ccccc3)CC2)CO1
- pKi: 9.30
